Measurements: BindingDB's records for doi:10.3109/14756366.2011.614607 (Ondokuz Mayis University, 2012)

How the values were obtained:
Test in all cases: CA Activity Assay
Settings in all cases: pH 7.4; 25 °C
[1] = target: Carbonic anhydrase 6 (Homo sapiens, UniProt P23280)
Method: (§1) The enzymatic reaction, in a total volume of 3.0 mL, contained 1.4 mL 0.05M Tris-SO4 buffer (pH 7.4), 1mL 3 mM 4-nitrophenylacetate, 0.5 mL H2O and 0.1mL enzyme solution. A reference measurement was obtained by preparing the same cuvette without enzyme solution. The inhibitory effects of the sulphonamide derivatives were examined. All compounds were tested in triplicate at each concentration used. Different concentrations of the compounds were used.

[2] = target: Carbonic anhydrase 1 (Homo sapiens, UniProt P00915)
Carbonic anhydrase 1, sequence (P00915 whole entry): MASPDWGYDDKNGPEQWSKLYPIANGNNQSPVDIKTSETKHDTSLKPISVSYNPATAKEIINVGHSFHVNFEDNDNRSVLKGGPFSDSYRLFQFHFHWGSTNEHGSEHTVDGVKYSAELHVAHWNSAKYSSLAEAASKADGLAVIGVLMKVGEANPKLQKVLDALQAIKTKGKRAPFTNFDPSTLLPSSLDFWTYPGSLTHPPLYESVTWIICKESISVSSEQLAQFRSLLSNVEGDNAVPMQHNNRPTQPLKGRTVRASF
Method: as §1

[3] = target: Carbonic anhydrase 2 (Homo sapiens, UniProt P00918)
Method: as §1

Carbonic anhydrase 6, sequence (P23280 whole entry): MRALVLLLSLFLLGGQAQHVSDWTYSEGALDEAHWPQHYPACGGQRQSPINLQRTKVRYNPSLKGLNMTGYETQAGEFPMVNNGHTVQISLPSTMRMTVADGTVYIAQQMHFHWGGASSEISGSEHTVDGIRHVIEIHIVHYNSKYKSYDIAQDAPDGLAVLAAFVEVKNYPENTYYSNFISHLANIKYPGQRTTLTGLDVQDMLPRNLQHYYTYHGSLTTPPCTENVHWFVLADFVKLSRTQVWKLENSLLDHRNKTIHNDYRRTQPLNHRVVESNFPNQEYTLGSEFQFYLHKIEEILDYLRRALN

Row | SMILES | Ki [1] | Ki [2] | Ki [3]
1 | NCc1ccc(S(N)(=O)=O)cc1 [aromatic sulfonamide compound 6] | 1.01 µM |  | 
2 | Nc1ccc(S(N)(=O)=O)cc1 [aromatic sulfonamide compound 5] | 1.21 µM |  | 
3 | CCOC1Oc2c(Br)cc(Br)cc2C(=O)/C1=C\Nc1ccc(S(N)(=O)=O)cc1 (centres undefined) [hCA inhibitor, 4] | 4.28 µM | 71.2 µM | 1.86 µM

Next, values leading:

Row | Ki [1] | Ki [2] | Ki [3] | SMILES
4 | 21.2 µM | 118 µM |  | Cc1ccc(S(N)(=O)=O)cc1
5 | 4.11 µM |  |  | NS(=O)(=O)c1ccccc1
6 | 2.24 µM | 48.1 µM | 1.13 µM | CCOC1Oc2c(Br)cccc2C(=O)/C1=C\Nc1ccc(S(N)(=O)=O)cc1 (centres undefined) [hCA inhibitor, 3]
7 | 0.943 µM | 13.7 µM | 0.228 µM | CCOC1Oc2ccccc2C(=O)/C1=C\Nc1ccc(S(N)(=O)=O)cc1 (centres undefined) [hCA inhibitor, 1]
